Data: US8663607B2, “Ferrate(VI)-containing compositions and methods of using ferrate(VI)” (Battelle Memorial Institute, priority 2007, dated 2014)

Assay: Stain removal from calcium deficient hydroxyapatite disks (human tooth model), tea stain
Procedure: Tea staining Solution: 200 mL of high-purity deionized (HPDI) water was heated to boiling in a 500-mL beaker. The beaker was removed from heat and 4 Lipton™ tea bags were added. The tea bags were allowed to soak for 5 minutes. The tea bags were pressed with a spatμLa upon removal to remove liquid.
Tea staining Procedure: A calcium-deficient hydroxyapatite (HAP) disk (Clarkson Chromatography Products) was placed into a 50-mL centrifuge tube with 10 mL of tea solution. The centrifuge tube was gently shaken by hand for 15 minutes. The tea solution was decanted and replaced with 10 mL of HPDI water and vortexed for 30 seconds. The water was decanted and replaced with 10 additional mL of HPDI water and vortexed for 30 seconds. The disk was removed with forceps and patted dry with a tissue. The disk was allowed to air dry at room temperature for at least one hour.
Oxidation resistant chelating buffer: 0.25M 1-Hydroxyethylidenediphosphonic acid (etridonic acid) (Dequest® 2010, Thermphos) (HEPA) was pH adjusted by microtitration with 10N NaOH. 1.28 g of 1-Hydroxyethylidenediphosphonic acid was to a 25-mL volumetric flask and brought to volume with HPDI water. The solution was transferred to a 50-mL beaker with a stir bar and pH adjusted using 10.04N NaOH, monitored with a calibrated pH meter. Aliquat 336® (Cognis) (also suitable is Aliquat 134®) (N-methyl-tri-(n-octyl)ammonium chloride), (N-methyl TOA) or “HEPA” chelating pH Buffer: 2.5-μL of N-methyl TOA was added to 5 mL of pH 7 HEPA buffer and sonicated for 1 minute. pH 7 Sodium Dodecyl Sulfate (SDS)/HEPA Buffer: 10 mg of SDS was added to 5 mL of pH 7 HEPA buffer and sonicated for 1 minute. pH 8 SDS/HEPA Buffer: 10 mg of SDS was added to 5 mL of pH 8 HEPA buffer and sonicated for 1 minute.
• A. A tea stained disk was placed into the bowl of the bowl of a watch glass and 100 μL of pH 7 HEPA buffer was pipetted onto the disk surface. 3.7 mg of potassium ferrate(VI) was added to the disk surface and mixed gently. […] The disk was rinsed at 10 minutes with HPDI water. […] 1 mL of pH 7 HEPA buffer was added followed by 9 mL of HPDI water. 9.7 mg of potassium ferrate(VI) was added. The tube was gently hand shaken for 10 minutes. The disk was removed and rinsed with HPDI water. […] 10 mg of potassium ferrate(VI) was added to 1 mL of pH 7 HEPA buffer in a 50 mL centrifuge tube. 9 mL HPDI water was added, and the solution was shaken for a few seconds followed by the addition of a tea stained HAP disk. The disk was removed at 10 minutes and rinsed with HPDI water. […] 1.3 mg of potassium ferrate(VI) added and mixed into the solution.

[1] = disk A-2: 30 mg calcium carbonate + 250 μL HPDI water, 10 mg, no chelating buffer, rinsed at 5 minutes
[2] = disk A: 100 μL pH 7 HEPA buffer, 3.7 mg added to disk surface, rinsed at 10 minutes
[3] = disk B-1: 10 mg calcium carbonate + 12 mg in 2 mL pH 8 SDS/HEPA buffer, 5 minutes, then 1 mL buffer 45 minutes
[4] = disk B: 1 mL pH 7 HEPA buffer + 9 mL water, 9.7 mg, shaken 10 minutes
[5] = disk E: 100 μL pH 7 HEPA buffer, 1.4 mg, 5 minutes, then 100 μL pH 7 HEPA buffer 5 minutes
[6] = disk F: 100 μL pH 7 HEPA buffer + one drop of N-methyl TOA (emulsion), 1 mg
[7] = disk G: 100 μL N-methyl TOA/HEPA buffer, 0.7 mg, rinsed at 5 minutes, then 100 μL buffer 5 minutes
[8] = disk H: 100 μL N-methyl TOA/HEPA buffer, 1.3 mg, 5 minutes, then 2 x 100 μL buffer 5 minutes each
[9] = disk I: 100 μL N-methyl TOA/HEPA buffer, 1.3 mg (uneven distribution), 5 minutes, then 200 μL buffer
[10] = disk J: 200 μL N-methyl TOA/HEPA buffer, 2.3 mg, 5 minutes, then 200 μL buffer 5 minutes
[11] = disk K: 9.9 mg premixed in 1 mL N-methyl TOA/HEPA buffer, disk fully covered 10 minutes, then 400 μL buffer 45 minutes
[12] = disk L: 100 μL pH 7 SDS/HEPA buffer, 1.3 mg, 10 minutes, then 100 μL buffer ten minutes
[13] = disk M: 1 mL of 29.3 mg in 3 mL pH 7 SDS/HEPA buffer, 3 minutes, then buffer soaks 8 and 35 minutes, extra rinse
[14] = disk N: 1 mL of 29.3 mg in 3 mL pH 7 SDS/HEPA buffer, 3 minutes, then buffer soaks 8 and 35 minutes, extra rinse
[15] = disk P: overnight tea stain, 0.75 mL of 25 mg in 1.5 mL pH 8 SDS/HEPA buffer, 5 minutes, then 1 mL buffer 45 minutes, rinsed again after drying one hour
[16] = disk Q: overnight tea stain, 0.75 mL of 25 mg in 1.5 mL pH 8 SDS/HEPA buffer, 5 minutes, then 1 mL buffer 45 minutes
[17] = disk S: tea stained disk treated the same way as P and Q (replicate)
[18] = disk U: treated the same way as P and Q, then submerged in HPDI water 45 minutes instead of drying

potassium ferrate(VI)
L* (lightness/darkness) [1]: 69.5 | a* (blue/red) [1]: 14.4 | appearance of disk after treatment [1]: the color was not removed | b* (yellow/green) [1]: 26 | reflectance of visible light at 450 nm [1]: 22.036 | reflectance of visible light at 750 nm [1]: 64.152 | ΔE (versus tea stain) [1]: 29.21 | L* (lightness/darkness) [2]: 72 | a* (blue/red) [2]: 2.6 | appearance of disk after treatment [2]: stained purple with rust stains | b* (yellow/green) [2]: −1.1 | reflectance of visible light at 450 nm [2]: 44.547 | reflectance of visible light at 750 nm [2]: 61.521 | ΔE (versus tea stain) [2]: 13.57 | L* (lightness/darkness) [3]: 100.8 | a* (blue/red) [3]: 0.5 | appearance of disk after treatment [3]: All stains were removed | b* (yellow/green) [3]: 0.1 | reflectance of visible light at 450 nm [3]: 100.124 | reflectance of visible light at 750 nm [3]: 103.677 | ΔE (versus B-2, tea stained) [3]: 15.29 | L* (lightness/darkness) [4]: 79.1 | a* (blue/red) [4]: 1.6 | appearance of disk after treatment [4]: stained purple with rust stains | b* (yellow/green) [4]: −2 | reflectance of visible light at 450 nm [4]: 57.457 | reflectance of visible light at 750 nm [4]: 69.889 | ΔE (versus tea stain) [4]: 8.29 | appearance of disk after treatment (disk C: 10 mg premixed in 1 mL pH 7 HEPA buffer + 9 mL water, disk removed at 10 minutes): stained purple | L* (lightness/darkness) [5]: 90.1 | a* (blue/red) [5]: 1.3 | appearance of disk after treatment [5]: lighter purple than previous examples | b* (yellow/green) [5]: −2.2 | reflectance of visible light at 450 nm [5]: 77.562 | reflectance of visible light at 750 nm [5]: 87.011 | ΔE (versus unstained disk) [5]: 4.24 | L* (lightness/darkness) [6]: 77 | a* (blue/red) [6]: 2.1 | appearance of disk after treatment [6]: purple with streaks where mixing occurred | b* (yellow/green) [6]: 0.7 | reflectance of visible light at 450 nm [6]: 44.547 | reflectance of visible light at 750 nm [6]: 68.873 | ΔE (versus tea stain) [6]: 8.65 | L* (lightness/darkness) [7]: 94 | a* (blue/red) [7]: 0.6 | appearance of disk after treatment [7]: purple color was removed but brown staining observed | b* (yellow/green) [7]: −0.1 | reflectance of visible light at 450 nm [7]: 82.923 | reflectance of visible light at 750 nm [7]: 92.128 | ΔE (versus tea stain) [7]: 10.88 | L* (lightness/darkness) [8]: 93.6 | a* (blue/red) [8]: 1.3 | appearance of disk after treatment [8]: light brown color | b* (yellow/green) [8]: 0.6 | reflectance of visible light at 450 nm [8]: 82.479 | reflectance of visible light at 750 nm [8]: 93.202 | ΔE (versus tea stain) [8]: 10.06 | L* (lightness/darkness) [9]: 91.2 | a* (blue/red) [9]: −0.8 | appearance of disk after treatment [9]: More decoloring was observed at the center | b* (yellow/green) [9]: −4.7 | reflectance of visible light at 450 nm [9]: 83.889 | reflectance of visible light at 750 nm [9]: 83.121 | ΔE (versus tea stain) [9]: 11.69 | L* (lightness/darkness) [10]: 87.5 | a* (blue/red) [10]: −0.1 | appearance of disk after treatment [10]: Rust spots observed | b* (yellow/green) [10]: −3.9 | reflectance of visible light at 450 nm [10]: 44.547 | reflectance of visible light at 750 nm [10]: 78.071 | ΔE (versus tea stain) [10]: 9.10 | L* (lightness/darkness) [11]: 100.8 | a* (blue/red) [11]: −0.3 | appearance of disk after treatment [11]: Significant color removal was observed | b* (yellow/green) [11]: −2.1 | reflectance of visible light at 450 nm [11]: 102.827 | reflectance of visible light at 750 nm [11]: 103.311 | ΔE (versus tea stain) [11]: 17.77 | L* (lightness/darkness) [12]: 99.1 | a* (blue/red) [12]: −0.4 | appearance of disk after treatment [12]: Most of the color was removed from the center of the disk | b* (yellow/green) [12]: −2.2 | reflectance of visible light at 450 nm [12]: 99.384 | reflectance of visible light at 750 nm [12]: 98.847 | ΔE (versus tea stain) [12]: 16.32 | L* (lightness/darkness) [13]: 100.1 | a* (blue/red) [13]: 0 | b* (yellow/green) [13]: −1.9 | reflectance of visible light at 450 nm [13]: 100.820 | reflectance of visible light at 750 nm [13]: 102.480 | ΔE (versus disk 0) [13]: 12.15 | L* (lightness/darkness) [14]: 100.6 | a* (blue/red) [14]: −0.3 | b* (yellow/green) [14]: −1.4 | reflectance of visible light at 450 nm [14]: 101.538 | reflectance of visible light at 750 nm [14]: 101.930 | ΔE (versus disk O) [14]: 12.63 | L* (lightness/darkness) [15]: 103.5 | a* (blue/red) [15]: −2.1 | b* (yellow/green) [15]: −3.2 | reflectance of visible light at 450 nm [15]: 111.059 | reflectance of visible light at 750 nm [15]: 103.081 | ΔE (versus disk R) [15]: 25.40 | L* (lightness/darkness) [16]: 101.8 | a* (blue/red) [16]: −1.2 | b* (yellow/green) [16]: −0.7 | reflectance of visible light at 450 nm [16]: 103.784 | reflectance of visible light at 750 nm [16]: 101.164 | ΔE (versus disk R) [16]: 22.83 | L* (lightness/darkness) [17]: 99.3 | a* (blue/red) [17]: 0 | reflectance of visible light at 450 nm [17]: 98.555 | reflectance of visible light at 750 nm [17]: 98.659 | L* (lightness/darkness) [18]: 96.9 | a* (blue/red) [18]: 0.4 | appearance of disk after treatment [18]: Color was removed as effectively as with a dried sample | b* (yellow/green) [18]: 0.3 | reflectance of visible light at 450 nm [18]: 89.892 | reflectance of visible light at 750 nm [18]: 94.030 | ΔE (versus tea stain) [18]: 13.44
